Source: patent US20120130146A1, “CONTINUOUS ADMINISTRATION OF CILENGITIDE IN CANCER TREATMENTS” (Merck Patent GmbH, priority 2009, published 2012)
“And” between values parts separate entries of the source, which are not always exact repeats. Equal entries are not always repeated.

Assay: Continuous infusion study pharmacokinetics (plasma)
Format: in vivo, human
Conditions: for EMD 121974 Concentrations / CL / V / ke / Css: individual subjects; for CL: CL=Rate/Css; for V, Mean / ke, Mean / V: t1/2 = 4 hours; for V: V=CL/ke; for ke: for t1/2 = 4 hours; for Css: mean of 168 h to 506 h values per patient
Method: Patients with solid tumors received a continuous infusion of 1 mg/h, 2 mg/h, 4 mg/h, 8 mg/h or 12 mg/h. with a weekly change of infusion bag.
Blood samples were taken on Day 1 (first dose) at pre-dose and 2 h after start of infusion and then weekly just before change of infusion bag and 2 hours thereafter for the first 4 weeks.
The following pharmacokinetic parameters were derived at Merck KGaA. Darmstadt, Germany, by mathematical methods using Kinetica Version 4.1.1.
CL the total body clearance of EMD 121974 from plasma Css plasma concentration at steady state ke elimination rate constant Rate infusion rate t1/2, half life V Volume of distribution
Css, the plasma concentration at steady state, has been estimated by the arithmetic mean of all concentration values from time point 168 h to 506 h per patient.
From Css and t1/2 the PK parameters CL, ke and V were calculated as follows: […]

[1] = Rate 1 mg/h, listed as EMD 121974
[2] = Rate 2 mg/h, listed as EMD 121974
[3] = Rate 4 mg/h, listed as EMD 121974
[4] = Rate 8 mg/h, listed as EMD 121974

With CC(C)[C@H]1C(=O)N[C@@H](CCCN=C(N)N)C(=O)NCC(=O)N[C@@H](CC(=O)O)C(=O)N[C@H](Cc2ccccc2)C(=O)N1C [Cilengitide, cyclo-(Arg-Gly-Asp-DPhe-NMeVal)] as the molecule, how does the “Mean values for half-life, clearance, and volume of distribution across dose levels” value (12 mg/h dose level and below) read?
Its value is “comparable across dose levels”.

What about the “EMD 121974 Concentrations” value (Rate 1 mg/h, 0 h (pre-dose)) of the same molecule?
Its value is “Undetectable”.

And the “EMD 121974 Concentrations” value (Rate 1 mg/h, 2 h, listed as EMD 121974)?
Its value is 42.90 ng/mL and Undetectable.

And the “EMD 121974 Concentrations” value (Rate 1 mg/h, 168 h, listed as EMD 121974)?
The value was 240.00 ng/mL.

What about the “EMD 121974 Concentrations” value (Rate 1 mg/h, 170 h, listed as EMD 121974) of the same molecule?
Its value is 156.00 ng/mL and 10.30 ng/mL.

And the “EMD 121974 Concentrations” value (Rate 1 mg/h, 336 h, listed as EMD 121974)?
Its value is 324.00 ng/mL and 172.00 ng/mL.

And the “EMD 121974 Concentrations” value (Rate 1 mg/h, 338 h, listed as EMD 121974)?
Its value is 321.00 ng/mL and 153.00 ng/mL.

And the CL [1]?
Its CL is 3.84 L/h and 10.17 L/h and 10.93 L/h.

And the “V, Mean” value (Rate 1 mg/h)?
The value was 48.0 L.

And the “ke, Mean” value (Rate 1 mg/h)?
Its value is 0.173 h⁻¹.

And the V [1]?
Its V is 22.2 L and 58.7 L and 63.1 L.

And the ke (Rate 1 mg/h)?
The ke was 0.173 h⁻¹.

And the Css [1]?
Its Css is 260.3 ng/mL and 98.4 ng/mL and 91.5 ng/mL.

And the “EMD 121974 Concentrations” value (Rate 2 mg/h, 0 h (pre-dose))?
Its value is “Undetectable”.

And the “EMD 121974 Concentrations” value (Rate 2 mg/h, 2 h, listed as EMD 121974)?
Its value is 162.00 ng/mL and Undetectable.

What about the “EMD 121974 Concentrations” value (Rate 2 mg/h, 168 h, listed as EMD 121974) of the same molecule?
Its value is 189.00 ng/mL and 498.00 ng/mL.

And the “EMD 121974 Concentrations” value (Rate 2 mg/h, 170 h)?
Its value is 316.00 ng/mL.

And the “EMD 121974 Concentrations” value (Rate 2 mg/h, 170 h, listed as EMD 121974)?
The value was 244.00 ng/mL.

What about the “EMD 121974 Concentrations” value (Rate 2 mg/h, 336 h, listed as EMD 121974) of the same molecule?
The value was 467.00 ng/mL and 523.00 ng/mL.

And the “EMD 121974 Concentrations” value (Rate 2 mg/h, 338 h, listed as EMD 121974)?
The value was 327.00 ng/mL and 392.00 ng/mL.

And the “EMD 121974 Concentrations” value (Rate 2 mg/h, 504 h, listed as EMD 121974)?
Its value is 268.00 ng/mL and 485.00 ng/mL.

And the “EMD 121974 Concentrations” value (Rate 2 mg/h, 506 h, listed as EMD 121974)?
The value was 247.00 ng/mL and 427.00 ng/mL.

And the CL [2]?
The CL was 4.54 L/h.

And the “V, Mean” value (Rate 2 mg/h)?
Its value is 33.0 L.

What about the “ke, Mean” value (Rate 2 mg/h) of the same molecule?
Its value is 0.173 h⁻¹.

What about the V [2] of the same molecule?
The V was 39.8 L and 26.2 L.

What about the ke (Rate 2 mg/h) of the same molecule?
The ke was 0.173 h⁻¹.

And the Css [2]?
Its Css is 290.3 ng/mL and 440.2 ng/mL.

And the “EMD 121974 Concentrations” value (Rate 4 mg/h, 0 h (pre-dose))?
Its value is “Undetectable”.

And the “EMD 121974 Concentrations” value (Rate 4 mg/h, 2 h, listed as EMD 121974)?
Its value is 228.00 ng/mL and 303.00 ng/mL and 454.00 ng/mL.

What about the “EMD 121974 Concentrations” value (Rate 4 mg/h, 168 h, listed as EMD 121974) of the same molecule?
The value was 467.00 ng/mL and 517.00 ng/mL and 894.00 ng/mL.

And the “EMD 121974 Concentrations” value (Rate 4 mg/h, 170 h, listed as EMD 121974)?
Its value is 408.00 ng/mL and 372.00 ng/mL and 843.00 ng/mL and 439.00 ng/mL.

And the “EMD 121974 Concentrations” value (Rate 4 mg/h, 336 h, listed as EMD 121974)?
The value was 606.00 ng/mL and 847.00 ng/mL.

And the “EMD 121974 Concentrations” value (Rate 4 mg/h, 338 h, listed as EMD 121974)?
The value was 283.00 ng/mL and 644.00 ng/mL and 711.00 ng/mL and 597.00 ng/mL.

And the “EMD 121974 Concentrations” value (Rate 4 mg/h, 504 h, listed as EMD 121974)?
The value was 1170.00 ng/mL and 524.00 ng/mL and 482.00 ng/mL and 485.00 ng/mL.

And the “EMD 121974 Concentrations” value (Rate 4 mg/h, 506 h, listed as EMD 121974)?
Its value is 776.00 ng/mL and 649.00 ng/mL and 618.00 ng/mL.

What about the CL [3] of the same molecule?
Its CL is 7.51 L/h and 5.96 L/h and 6.19 L/h.

What about the “V, Mean” value (Rate 4 mg/h) of the same molecule?
Its value is 37.7 L.

And the “ke, Mean” value (Rate 4 mg/h)?
Its value is 0.173 h⁻¹.

And the V [3]?
Its V is 37.2 L and 43.3 L and 34.4 L and 35.7 L.

What about the ke (Rate 4 mg/h) of the same molecule?
The ke was 0.173 h⁻¹.

What about the Css [3] of the same molecule?
The Css was 620.8 ng/mL and 532.6 ng/mL and 671.3 ng/mL and 646.7 ng/mL.

What about the “EMD 121974 Concentrations” value (Rate 8 mg/h, 0 h (pre-dose)) of the same molecule?
The value was “Undetectable”.

What about the “EMD 121974 Concentrations” value (Rate 8 mg/h, 2 h, listed as EMD 121974) of the same molecule?
Its value is 603.00 ng/mL and 445.00 ng/mL and 462.00 ng/mL.

And the “EMD 121974 Concentrations” value (Rate 8 mg/h, 168 h, listed as EMD 121974)?
Its value is 1310.00 ng/mL and 881.00 ng/mL and 2190.00 ng/mL.

And the “EMD 121974 Concentrations” value (Rate 8 mg/h, 170 h, listed as EMD 121974)?
Its value is 862.00 ng/mL and 958.00 ng/mL and 1820.00 ng/mL.

And the “EMD 121974 Concentrations” value (Rate 8 mg/h, 336 h)?
The value was 525.00 ng/mL.

What about the “EMD 121974 Concentrations” value (Rate 8 mg/h, 338 h, listed as EMD 121974) of the same molecule?
Its value is 424.00 ng/mL and 1520.00 ng/mL.

And the “EMD 121974 Concentrations” value (Rate 8 mg/h, 504 h, listed as EMD 121974)?
The value was 1610.00 ng/mL and 1440.00 ng/mL and 1830.00 ng/mL.

What about the “EMD 121974 Concentrations” value (Rate 8 mg/h, 506 h, listed as EMD 121974) of the same molecule?
The value was 1590.00 ng/mL and 771.00 ng/mL and 1500.00 ng/mL.

What about the CL [4] of the same molecule?
Its CL is 5.96 L/h and 9.60 L/h and 4.51 L/h.

What about the “V, Mean” value (Rate 8 mg/h) of the same molecule?
The value was 38.6 L.

What about the “ke, Mean” value (Rate 8 mg/h) of the same molecule?
Its value is 0.173 h⁻¹.

What about the V [4] of the same molecule?
Its V is 34.4 L and 55.4 L and 26.1 L.

And the ke (Rate 8 mg/h)?
The ke was 0.173 h⁻¹.

And the Css [4]?
The Css was 1343.0 ng/mL and 833.2 ng/mL and 1772.0 ng/mL.

What about the “EMD 121974 Concentrations” value (Rate 12 mg/h, 0 h (pre-dose)) of the same molecule?
The value was “Undetectable”.

What about the “EMD 121974 Concentrations” value (Rate 12 mg/h, 2 h, listed as EMD 121974) of the same molecule?
The value was 722.00 ng/mL and 303.00 ng/mL and 472.00 ng/mL.

And the “EMD 121974 Concentrations” value (Rate 12 mg/h, 168 h, listed as EMD 121974)?
The value was 777.00 ng/mL and 2550.00 ng/mL and 1980.00 ng/mL.

What about the “EMD 121974 Concentrations” value (Rate 12 mg/h, 170 h, listed as EMD 121974) of the same molecule?
The value was 1130.00 ng/mL and 1770.00 ng/mL and 1340.00 ng/mL.
